Source: PubChem BioAssay (NCI)
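96-well plates; 48 h exposure; 5 concentrations. Endpoints by linear interpolation between flanking doses. Not reached: highest tested concentration assigned. GI50 is the concentration that inhibits growth by half. At the TGI there is no net growth.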

Assays:
Experiment in all cases: DTP human tumour cell line panel, 48 h
[1] = system: 786-0 renal
[2] = system: HCT-116 colon
[3] = system: UO-31 renal
[4] = system: SNB-19 CNS
[5] = system: SF-268 CNS
[6] = system: SF-539 CNS
[7] = system: OVCAR-4 ovarian
[8] = system: M14 melanoma
[9] = system: UACC-257 melanoma
[10] = system: SW-620 colon
[11] = system: SK-OV-3 ovarian
[12] = system: K-562 leukemia
[13] = system: TK-10 renal
[14] = system: SF-295 CNS
[15] = system: DU-145 prostate
[16] = system: MCF7 breast
[17] = system: HT29 colon
[18] = system: ACHN renal
[19] = system: SN12C renal
[20] = system: HOP-92 NSCLC
[21] = system: BT-549 breast
[22] = system: A549 NSCLC
[23] = system: HS 578T breast
[24] = system: COLO 205 colon
[25] = system: NCI-H460 lung
[26] = system: MALME-3M melanoma
[27] = system: OVCAR-5 ovarian
[28] = system: RXF 393 renal
[29] = system: HOP-62 NSCLC
[30] = system: LOX IMVI melanoma
[31] = system: UACC-62 melanoma
[32] = system: NCI-H522 lung
[33] = system: SNB-75 CNS
[34] = system: NCI-H226 lung
[35] = system: OVCAR-3 ovarian
[36] = system: HCC-2998 colon
[37] = system: NCI-H23 lung
[38] = system: KM12 colon
[39] = system: SK-MEL-28 melanoma
[40] = system: SK-MEL-5 melanoma
[41] = system: MOLT-4 leukemia
[42] = system: HL-60(TB) leukemia
[43] = system: CCRF-CEM leukemia
[44] = system: T-47D breast
[45] = system: IGROV1 ovarian
[46] = system: EKVX NSCLC
[47] = system: MDA-MB-231 breast
[48] = system: HCT-15 colon
[49] = system: SR leukemia
[50] = system: OVCAR-8 ovarian
[51] = system: U251 CNS
[52] = system: RPMI-8226 leukemia
[53] = system: NCI/ADR-RES ovarian
[54] = system: A498 renal
[55] = system: PC-3 prostate
[56] = system: SK-MEL-2 melanoma
[57] = system: CAKI-1 renal
[58] = system: MDA-MB-435

COc1ccc(C(=O)c2cc3c(OC)c(OC)c(OC)cc3[nH]2)cc1
GI50 [1]: 11.9 µM | TGI [1]: > 100 µM | GI50 [2]: 3.22 µM | TGI [2]: > 100 µM | GI50 [3]: 6.19 µM | TGI [3]: > 100 µM | GI50 [4]: 18.6 µM | TGI [4]: > 100 µM | GI50 [5]: 68.1 µM | TGI [5]: > 100 µM | GI50 [6]: 4.76 µM | TGI [6]: > 100 µM | GI50 [7]: > 100 µM | TGI [7]: > 100 µM | GI50 [8]: 3.69 µM | TGI [8]: > 100 µM | GI50 [9]: > 100 µM | TGI [9]: > 100 µM | GI50 [10]: 5.87 µM | TGI [10]: > 100 µM | GI50 [11]: > 100 µM | TGI [11]: > 100 µM | GI50 [12]: 1.1 µM | TGI [12]: > 100 µM | GI50 [13]: 39.6 µM | TGI [13]: > 100 µM | GI50 [14]: 6.72 µM | TGI [14]: > 100 µM | GI50 [15]: > 100 µM | TGI [15]: > 100 µM | GI50 [16]: 1.32 µM | TGI [16]: > 100 µM | GI50 [17]: 4 µM | TGI [17]: > 100 µM | GI50 [18]: 12.8 µM | TGI [18]: > 100 µM | GI50 [19]: 5.21 µM | TGI [19]: > 100 µM | GI50 [20]: 9.24 µM | TGI [20]: > 100 µM | GI50 [21]: 8.51 µM | TGI [21]: > 100 µM | GI50 [22]: 5.77 µM | TGI [22]: > 100 µM | GI50 [23]: 4.25 µM | TGI [23]: > 100 µM | GI50 [24]: 3.45 µM | TGI [24]: > 100 µM | GI50 [25]: 3.26 µM | TGI [25]: > 100 µM | GI50 [26]: 5.8 µM | TGI [26]: > 100 µM | GI50 [27]: 66.9 µM | TGI [27]: > 100 µM | GI50 [28]: 10.2 µM | TGI [28]: 95.7 µM | GI50 [29]: 19.6 µM | TGI [29]: 80.9 µM | GI50 [30]: 4.91 µM | TGI [30]: > 100 µM | GI50 [31]: 3.39 µM | TGI [31]: > 100 µM | GI50 [32]: 1.55 µM | TGI [32]: 6.04 µM | GI50 [33]: 6.84 µM | TGI [33]: 28.5 µM | GI50 [34]: > 100 µM | TGI [34]: > 100 µM | GI50 [35]: 9.07 µM | TGI [35]: > 100 µM | GI50 [36]: 3.8 µM | TGI [36]: > 100 µM | GI50 [37]: 6.25 µM | TGI [37]: > 100 µM | GI50 [38]: 2.36 µM | TGI [38]: > 100 µM | GI50 [39]: 8.79 µM | TGI [39]: > 100 µM | GI50 [40]: 2.2 µM | TGI [40]: 5.62 µM | GI50 [41]: 3.51 µM | TGI [41]: > 100 µM | GI50 [42]: 2.24 µM | TGI [42]: 61.8 µM | GI50 [43]: 5.27 µM | TGI [43]: > 100 µM | GI50 [44]: 4.53 µM | TGI [44]: > 100 µM | GI50 [45]: 9.68 µM | TGI [45]: > 100 µM | GI50 [46]: 5.14 µM | TGI [46]: > 100 µM | GI50 [47]: 4.96 µM | TGI [47]: > 100 µM | GI50 [48]: 2.23 µM | TGI [48]: > 100 µM | GI50 [49]: 0.295 µM | TGI [49]: 2.57 µM | GI50 [50]: 33.7 µM | TGI [50]: > 100 µM | GI50 [51]: 5.2 µM | TGI [51]: > 100 µM | GI50 [52]: 2.81 µM | TGI [52]: 8.13 µM | GI50 [53]: 3.2 µM | TGI [53]: 40.9 µM | GI50 [54]: 6.45 µM | TGI [54]: 47.7 µM | GI50 [55]: > 100 µM | TGI [55]: > 100 µM

O=C(CCl)N1c2ccccc2Sc2ccc3ccccc3c21
GI50 [1]: 1.44 µM | TGI [1]: 3.03 µM | GI50 [2]: 0.652 µM | TGI [2]: 2.06 µM | GI50 [3]: 0.281 µM | TGI [3]: 1.07 µM | GI50 [4]: 1.58 µM | TGI [4]: 3.09 µM | GI50 [5]: 1.64 µM | TGI [5]: 3.16 µM | GI50 [6]: 1.72 µM | TGI [6]: 3.15 µM | GI50 [7]: 0.659 µM | TGI [7]: 2.9 µM | GI50 [8]: 1.66 µM | TGI [8]: 3.43 µM | GI50 [9]: 1.48 µM | TGI [9]: 2.87 µM | GI50 [10]: 1.27 µM | TGI [10]: 2.89 µM | GI50 [11]: 1.79 µM | TGI [11]: 3.18 µM | GI50 [56]: 1.97 µM | TGI [56]: 3.8 µM | GI50 [12]: 0.659 µM | TGI [12]: 3.49 µM | GI50 [13]: 1.54 µM | TGI [13]: 2.92 µM | GI50 [14]: 1.68 µM | TGI [14]: 3.15 µM | GI50 [15]: 1.53 µM | TGI [15]: 2.9 µM | GI50 [16]: 1.49 µM | TGI [16]: 3.29 µM | GI50 [17]: 1.28 µM | TGI [17]: 4.58 µM | GI50 [18]: 0.801 µM | TGI [18]: 2.01 µM | GI50 [19]: 1.59 µM | TGI [19]: 2.98 µM | GI50 [20]: 1.16 µM | TGI [20]: 2.51 µM | GI50 [21]: 1.56 µM | TGI [21]: 3.52 µM | GI50 [22]: 1.98 µM | TGI [22]: 4.75 µM | GI50 [23]: 2.04 µM | TGI [23]: 6.56 µM | GI50 [24]: 1.69 µM | TGI [24]: 3.14 µM | GI50 [25]: 1.89 µM | TGI [25]: 3.82 µM | GI50 [26]: 0.352 µM | TGI [26]: 1.32 µM | GI50 [27]: 1.48 µM | TGI [27]: 3.03 µM | GI50 [28]: 1.49 µM | TGI [28]: 2.83 µM | GI50 [29]: 1.63 µM | TGI [29]: 3.05 µM | GI50 [30]: 0.143 µM | TGI [30]: 0.299 µM | GI50 [31]: 1.53 µM | TGI [31]: 2.88 µM | GI50 [32]: 0.509 µM | TGI [32]: 1.1 µM | GI50 [33]: 1.16 µM | TGI [33]: 2.4 µM | GI50 [34]: 2.36 µM | TGI [34]: 5.5 µM | GI50 [35]: 1.36 µM | TGI [35]: 2.72 µM | GI50 [36]: 1.8 µM | TGI [36]: 3.25 µM | GI50 [57]: 0.498 µM | TGI [57]: 0.95 µM | GI50 [37]: 1.18 µM | TGI [37]: 2.54 µM | GI50 [38]: 1.82 µM | TGI [38]: 3.35 µM | GI50 [39]: 1.65 µM | TGI [39]: 3.01 µM | GI50 [40]: 1.6 µM | TGI [40]: 2.96 µM | GI50 [41]: 0.478 µM | GI50 [42]: 1.07 µM | TGI [42]: 5.13 µM | GI50 [43]: 0.22 µM | TGI [43]: 0.533 µM | GI50 [44]: 1.66 µM | TGI [44]: 3.69 µM | GI50 [45]: 0.567 µM | TGI [45]: 1.5 µM | GI50 [58]: 1.46 µM | TGI [58]: 3.01 µM | GI50 [47]: 1.64 µM | TGI [47]: 3.14 µM | GI50 [48]: 1.09 µM | TGI [48]: 2.53 µM | GI50 [49]: 0.634 µM | TGI [49]: 9.74 µM | GI50 [50]: 1.64 µM | TGI [50]: 3.71 µM | GI50 [51]: 1.55 µM | TGI [51]: 2.95 µM | GI50 [52]: 1.32 µM | TGI [52]: 4.06 µM | GI50 [53]: 2.18 µM | TGI [53]: 5.26 µM | GI50 [54]: 1.73 µM | TGI [54]: 3.31 µM | GI50 [55]: 1.47 µM | TGI [55]: 3.06 µM
